In ChEMBL document CHEMBL1201862, “PubChem BioAssay data set” (2004):
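Each compound was tested at five concentrations against cells in 96-well plates for 48 hours. GI50 is the concentration that inhibits growth by half.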 Activity calls are given as the source filed them. Cut-off read from the data, not from the text of the source: active = GI50 up to about 1.1 µM and inactive = higher. Non-standard residues stand in square brackets, D forms with d. Residues, ends and D or L forms follow the SMILES beside them. ξ: configuration not given here. *: point of attachment. NMeF = CN[C@@H](Cc1ccccc1)C(=O)O; ξNMeV = CNC(C(=O)O)C(C)C; Boc = CC(C)(C)OC(=O)*; OBn = c1ccc(CO*)cc1

Tests used:
Experiment in all cases: inhibition of tumour cell growth, NCI panel, 48 h
HL-60 = system: HL-60
NCI-H522 = system: NCI-H522
EKVX = system: EKVX
LXFL 529 = system: LXFL 529
HCC 2998 = system: HCC 2998
ACHN = system: ACHN
HT-29 = system: HT-29
SK-MEL-28 = system: SK-MEL-28
UO-31 = system: UO-31
786-0 = system: 786-0
A498 = system: A498
SN12C = system: SN12C
KM12 = system: KM12
MDA-MB-231 = system: MDA-MB-231
UACC-257 = system: UACC-257
RXF 393 = system: RXF 393
SF-268 = system: SF-268
SF-539 = system: SF-539
HCT-15 = system: HCT-15
SW-620 = system: SW-620

Structure (SMILES) | GI50 (HL-60) | GI50 (NCI-H522) | GI50 (EKVX) | GI50 (LXFL 529) | GI50 (HCC 2998) | GI50 (ACHN) | GI50 (HT-29) | GI50 (SK-MEL-28) | GI50 (UO-31) | GI50 (786-0) | GI50 (A498) | GI50 (SN12C) | GI50 (KM12) | GI50 (MDA-MB-231) | GI50 (UACC-257) | GI50 (RXF 393) | GI50 (SF-268) | GI50 (SF-539) | GI50 (HCT-15) [µM] | GI50 (SW-620)
C1COCCN1.S=C(S)N1CCOCC1 | 1.12 µM (inactive) | 0.973 µM (active) | > 100 µM (inactive) | 1.34 µM (inactive) | 2.59 µM (inactive) | > 100 µM (inactive) | 0.811 µM (active) | 10.3 µM (inactive) | > 100 µM (inactive) | 10.1 µM (inactive) | 24.9 µM (inactive) | > 100 µM (inactive) | 20.1 µM (inactive) | > 100 µM (inactive) | 4.68 µM (inactive) | 2.43 µM (inactive) | 9.68 µM (inactive) | 43.1 µM (inactive) | 6.7 | 2.55 µM (inactive)
COC(=O)C(Cc1nc2ccccc2nc1C)/C(=N\NC(N)=O)C(=O)Nc1cccc([N+](=O)[O-])c1 (stereo unspecified) | 36.1 µM (inactive) | 10.8 µM (inactive) | > 100 µM (inactive) | 37.7 µM (inactive) | > 100 µM (inactive) | > 100 µM (inactive) | > 100 µM (inactive) | > 100 µM (inactive) | > 100 µM (inactive) | > 100 µM (inactive) | > 100 µM (inactive) | > 100 µM (inactive) | 95.9 µM (inactive) | – | > 100 µM (inactive) | 36.8 µM (inactive) | 64.9 µM (inactive) | 74.3 µM (inactive) | > 100 | > 100 µM (inactive)
COC(=O)C(C(=O)C(=O)Nc1ccc([N+](=O)[O-])cc1)c1nc2ccc([N+](=O)[O-])cc2nc1O (stereo unspecified) | 41.9 µM (inactive) | 14.1 µM (inactive) | > 100 µM (inactive) | 43.5 µM (inactive) | > 100 µM (inactive) | > 100 µM (inactive) | > 100 µM (inactive) | > 100 µM (inactive) | > 100 µM (inactive) | > 100 µM (inactive) | > 100 µM (inactive) | > 100 µM (inactive) | > 100 µM (inactive) | – | > 100 µM (inactive) | > 100 µM (inactive) | > 100 µM (inactive) | > 100 µM (inactive) | > 100 | > 100 µM (inactive)
CN(c1nc(=[N+](C)C)ss1)C1CCCCC1 | > 100 µM (inactive) | > 100 µM (inactive) | > 100 µM (inactive) | > 100 µM (inactive) | > 100 µM (inactive) | > 100 µM (inactive) | > 100 µM (inactive) | > 100 µM (inactive) | > 100 µM (inactive) | > 100 µM (inactive) | > 100 µM (inactive) | > 100 µM (inactive) | 58.5 µM (inactive) | – | > 100 µM (inactive) | > 100 µM (inactive) | 60.1 µM (inactive) | > 100 µM (inactive) | > 100 | > 100 µM (inactive)
CC(C)C(C(=O)N1CCC[C@@H]1C(=O)OCc1ccccc1)N(C)C(=O)C(C(C)C)N(C)C(=O)[C@H](Cc1ccccc1)N(C)C(=O)[C@H](NC(=O)OC(C)(C)C)C(C)C (stereo partly specified) (Boc-[dV][NMeF][ξNMeV][ξNMeV][dP]-OBn) | 4.12 µM (inactive) | > 100 µM (inactive) | > 65.8 µM (inactive) | 8.81 µM (inactive) | > 100 µM (inactive) | 16.7 µM (inactive) | > 45.4 µM (inactive) | > 100 µM (inactive) | > 29.2 µM (inactive) | > 100 µM (inactive) | > 100 µM (inactive) | > 100 µM (inactive) | > 80.7 µM (inactive) | – | 13.6 µM (inactive) | > 100 µM (inactive) | > 86.1 µM (inactive) | > 100 µM (inactive) | > 30.9 | > 100 µM (inactive)
